According to patent US20130225623A1, “Methods of Treating Psychiatric or Neurological Disorders with MGLUR Antagonists” (MOUNT SINAI SCHOOL OF MEDICINE, priority 2010, published 2013):
Values joined by “and” are separate entries in the source; they are usually repeats but may differ in a detail not shown here. Identical values can stand only once.

Legend:
Type in all cases: cell-based, mouse
[1] = system: field EPSPs in hippocampal slices (area CA1); group I mGluRs; assay: DHPG-induced long-term depression (mGluR-LTD), hippocampal slice electrophysiology; conditions: for effect of mGluR blockade on DHPG-induced LTD: Cyfip1 heterozygotes, slices incubated with antagonist and DHPG (MPEP 10 μM; LY367385 100 μM); for depression in synaptic transmission (field EPSP slope): at 30 min of application
Experimental: (§1) Hippocampal slices (350 μm) were prepared from 4-6 week old heterozygous mice and their wild-type littermate controls. Slices were perfused with Ringer's solution containing (in mM): NaCl, 125.0; KCl, 2.5; MgSO4, 1.3; NaH2PO4, 1.0; NaHCO3, 26.2; CaCl2, 2.5; glucose, 11.0. The Ringer's solution was bubbled with 95% O2/5% CO2, at 32° C., during extracellular recordings (electrode solution: 3 M NaCl). Slices were maintained for 1 hr prior to establishment of a baseline of field excitatory postsynaptic potentials (fEPSPs) recorded from stratum radiatum in area CA1, evoked by stimulation of the Schaffer collateral-commissural afferents (100 μs pulses every 30 s) with bipolar tungsten electrodes placed into area CA3 (Bozdagi et al., 2000). Test stimulus intensity was adjusted to obtain fEPSPs with amplitudes that were one-half of the maximal response. The EPSP initial slope (mV/ms) was determined from the average waveform of four consecutive responses. Cycloheximide (60 μM, Sigma), dihydroxyphenylglycine (DHPG, 50 μM, Sigma), 2-methyl-6-phenylethynyl-pyridine (MPEP, 10 μM, Tocris), LY367385 (100 μM, Tocris), or rapamycin (20 nM, Enzo Life Sciences) were bath-applied for various durations as described in the Examples, below.
(§2) All experiments were performed in the presence of 100 μM 2-amino-5-phosphopentanoic acid (AP5). Paired-pulse responses were measured with interstimulus interval (ISI) of 50 ms, and are expressed as the ratio of the average responses to the second stimulation pulse (FP2) to the first stimulation pulse (FP1). LTP was induced by either a high-frequency stimulus (four trains of 100 Hz, 1 s stimulation separated by 5 min), a threshold levels of theta-burst stimulation (TBS) (5 bursts of four pulses at 100 Hz separated by 200 ms, (Lauterborn et al., 2007), or a single 100 Hz stimulation. To induce an mGluR-dependent LTD, Schaffer collaterals were stimulated by a paired-pulse low-frequency-stimulation (PP-LFS, 1 Hz for 20 min; 50 ms interstimulus interval (Huber et al., […]). DHPG-induced LTD was also used as described in the Examples, below
The mammalian target of rapamycin (mTOR) is an important regulator of translation in long-lasting forms of synaptic plasticity and it has been shown that DHPG-induced mGluR-LTD in hippocampal area CA1 is dependent on mTOR (see Richter and Klann, 2009). To determine whether mTOR is required for mGluR-LTD in Cyfip1 heterozygous mice, hippocampal slices were treated with DHPG in the presence of the mTOR inhibitor rapamycin.
Because mGluR5 activation is essential for mGluR-LTD induction, the effect of mGluR5 blockade on DHPG-induced LTD was examined. […] The effect of mGluR1 blockade on DHPG-induced LTD was also examined. […] The slices were next treated with both mGluR1 (LY367385) and mGluR5 (MPEP) antagonists.

[2] = system: field EPSPs at Schaffer collateral-CA1 synapses in acute hippocampal slices; assay: Paired-pulse low frequency stimulation (PP-LFS)-induced mGluR-LTD, hippocampal slice electrophysiology; conditions: for effect on PP-LFS-induced LTD: cycloheximide 60 μM; for field EPSP slope: in the presence of cycloheximide (60 μM), at 60 min after PP-LFS
Experimental: as §1, §2
To examine the role of CYFIP1 in mGluR-LTD, field EPSPs were recorded at Schaffer collateral-CA1 synapses in acute hippocampal slices prepared from wild-type and Cyfip1 heterozygous mice.
One of the most striking abnormalities in experimental synaptic plasticity observed in the absence of FMRP is that mGluR-LTD is independent of protein synthesis in these animals. As the Cyfip1 heterozygotes have enhanced LTD, similar to what is observed in the absence of FMRP, mGluR-LTD in the presence of the protein synthesis inhibitor cycloheximide was examined.

[3] = system: field EPSPs in hippocampal slices (area CA1); assay: Protein synthesis-dependent LTP induced by high frequency stimulation (HFS), hippocampal slice electrophysiology

In the case of `Cc1cccc(C#Cc2ccccc2)n1` [MPEP, 2-methyl-6-(phenylethynyl)-pyridine], the “effect of mGluR blockade on DHPG-induced LTD” value [1] is reported as “did not cause any change”.

For `C[C@@H]1C[C@@H]([C@H](O)CC2CC(=O)NC(=O)C2)C(=O)[C@@H](C)C1` [cycloheximide], the “effect on PP-LFS-induced LTD” value ([2]; Cyfip1 heterozygous animals) was “not affected”, the “field EPSP slope” value ([2]; Cyfip1 heterozygous slices) was 68.49±8.9 % of baseline and the “effect on PP-LFS-induced LTD” value ([2]; wild-type littermate controls) was “inhibited LTD”. For the same compound, the “field EPSP slope” value ([2]; wild-type slices) was 98.05±2.5 % of baseline, the “field EPSP slope” value [3] was 99±8 % of baseline and 100.8±8.2 % of baseline and the “inhibition of protein synthesis-dependent LTP, comparison between genotypes” value ([3]; wild-type vs Cyfip1 heterozygous mice, cycloheximide 60 μM, rapamycin 20 nM) was “did not differ between genotypes”. The “effect on DHPG-induced LTD” value ([1]; wild-type mice, 60 μM cycloheximide, DHPG 50 μM) was “reduced LTD”.

In the case of `Cc1cc(C(=O)O)ccc1[C@H](N)C(=O)O` [LY367385], the “effect of mGluR blockade on DHPG-induced LTD” value [1] is reported as “did not cause any change”.

With `NC(C(=O)O)c1cc(O)cc(O)c1` (racemic) [DHPG, (RS)-3,5-dihydroxyphenylglycine] the “depression in synaptic transmission (field EPSP slope)” value ([1]; Cyfip1 heterozygous mice, DHPG 50 μM) was 70.5±6 % of baseline and the “depression in synaptic transmission (field EPSP slope)” value ([1]; wild-type mice, DHPG 50 μM) was 81.2±3 % of baseline.
